Experimental data as given in patent publication US11034674B2, “Methods of treating inflammation or neuropathic pain” (H. Lundbeck A/S, priority 2015, dated 2021).
Structures can show the parent of a compound that is named as a salt. Where two headings read alike, the source gives them in different places. One block for each molecule: values may come before it.

Assays:
MGLL = MGLL (Canis lupus familiaris, UniProt A0A8I3PC77); assay: biochemical
Description: In vitro potency was determined using activity-based protein profiling (ABPP) which is a functional proteomic technology that uses chemical probes to covalently modify enzyme active sites in an activity-dependent manner (e.g., only catalytically active enzymes will react and become labeled with the ABPP probe). Identification of the proteins that were labeled by the probes was accomplished using polyacrylamide gel electrophoresis or mass spectrometry.

2-AG [1] = assay: 2-AG and anandamide concentrations in rat tissues and plasma after oral dose; type: in vivo
Text: MGLL target engagement inhibits the hydrolysis of 2-AG, elevating tissue 2-AG concentrations, which can be measured in rodent tissues and fluids by MS. Elevation of 2-AG results in enhanced cannabinoid receptor signaling and physiological responses.
Inhibition of MGLL causes accumulation of 2-AG in the rodent brain and periphery.

2-AG [2] = assay: Rat plasma 2-AG levels after single PO dose (LC-MS/MS); type: in vivo; conditions: single PO doses up to 30 mg/kg, 4 h
Description: […]. MGLL activity was assessed by ABPP analysis in PBMC lysates and plasma 2-AG concentrations were measured by liquid chromatography tandem mass spectrometry (LC-MS/MS).

[3] = Phase 1 single- and multiple-dose study: plasma pharmacokinetics; type: in vivo; conditions: human, po, fasted; for AUC(0-inf): read-out: AUCinf (mean); for half-life: read-out: T1/2 (median) (converted)
Text: (§1) General Design and Methodology: The purpose of this study is to assess the initial safety, tolerability, pharmacokinetics, and pharmacodynamics of Compound 1 (administered as Capsules of the hydrochloride salt of Compound 1) in healthy adults. […] Data from this study is used to select doses and dose regimens for subsequent clinical studies.
There is a minimum 72-hour period between administration of study drug in Panels A and B. In addition, there is a minimum 2-week washout between Panel B Period 2 and Panel A Period 3 in order to evaluate available preliminary pharmacokinetic data along with safety and tolerability data from the preceding doses before proceeding with dosing in Periods 3 and 4. All doses are administered orally, together with approximately 240 mL of water. Water is otherwise restricted from 1 hour prior to, and for 1 hour after administration of study drug. In each treatment period, with the exception of Panel A Period 4 (food effect treatment period); study drug is administered after an overnight fast (for approximately 8 hours).
The allocation schedule for Periods 2 and 4 (fasted versus fed) are the same such that the same subjects receive active drug or matching placebo in the respective treatment periods.
PK: Descriptive statistics are provided by treatment (Part 1) and by treatment and day (Part 2). Minimum, median, maximum and CV are provided for all PK parameters. Arithmetic mean and standard deviation based on the raw scale are provided for AUC and Cmax. In addition, the percent CV of AUC and Cmax is also provided and calculated according to the following formula: 100×sqrt(exp(s2)−1), where s2 is the observed variance on the natural log-scale. Harmonic mean and jack-knife SD is provided for half-life. Time to steady-state, and evaluation of PK linearity are evaluated in an exploratory fashion.

in vivo = conditions: rat, po, 0.5 mg/kg
formalin-challenged rats = assay: Rat formalin paw test
2-AG [4] = assay: Mouse brain 2-AG concentrations after PO dose; conditions: single-dose PO
[5] = Phase 1 single- and multiple-dose study: safety and tolerability; type: in vivo, human
Description: as §1
In Part 2, Panels are dosed sequentially.

[6] = 100 mg, single oral dose 100 mg, Panel A, Period 3 (A3)
[7] = 100 mg, single oral dose 100 mg, Panel B, Period 4 (B4)
[8] = 200 mg, single oral dose 200 mg
[9] = Panel C (10 mg QD×14 days) or Panel D (20 mg QD×14 days)

Chain of MGLL (A0A8I3PC77 1-304): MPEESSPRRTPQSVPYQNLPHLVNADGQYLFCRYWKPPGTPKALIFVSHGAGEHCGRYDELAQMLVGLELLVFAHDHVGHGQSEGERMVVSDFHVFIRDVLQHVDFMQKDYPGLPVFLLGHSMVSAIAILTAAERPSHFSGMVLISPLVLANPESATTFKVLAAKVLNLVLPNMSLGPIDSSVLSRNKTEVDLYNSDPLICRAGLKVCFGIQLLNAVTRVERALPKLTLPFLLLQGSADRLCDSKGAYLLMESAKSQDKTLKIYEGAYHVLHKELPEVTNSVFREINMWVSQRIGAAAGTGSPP

IC50 (MGLL; MGLL IC50, Dog Prefrontal Cortex, 30 min pre-incubation at 37° C., mean ± SEM, n = 3): 12 ± 2 nM | IC50 (MGLL; MGLL IC50, dog MGLL, summary statement for all species): < 30 nM | Cmax ([3]; 2 mg, single oral dose 2 mg): 2.9 ng/mL | Tmax ([3]; 2 mg, single oral dose 2 mg): 1.5 h | AUC(0-inf) ([3]; 2 mg, single oral dose 2 mg): 15.9 ng·h/mL | half-life ([3]; 2 mg, single oral dose 2 mg): 1.51 h | Cmax ([3]; 6 mg, single oral dose 6 mg): 10.2 ng/mL | Tmax ([3]; 6 mg, single oral dose 6 mg): 1.67 h | AUC(0-inf) ([3]; 6 mg, single oral dose 6 mg): 47 ng·h/mL | half-life ([3]; 6 mg, single oral dose 6 mg): 2.23 h | Cmax ([3]; 18 mg, single oral dose 18 mg): 23.5 ng/mL | Tmax ([3]; 18 mg, single oral dose 18 mg): 2 h | AUC(0-inf) ([3]; 18 mg, single oral dose 18 mg): 109 ng·h/mL | half-life ([3]; 18 mg, single oral dose 18 mg): 3.02 h | Cmax ([3]; 50 mg, single oral dose 50 mg): 59.8 ng/mL | Tmax ([3]; 50 mg, single oral dose 50 mg): 1.8 h | AUC(0-inf) ([3]; 50 mg, single oral dose 50 mg): 296 ng·h/mL | half-life ([3]; 50 mg, single oral dose 50 mg): 3.44 h | Cmax [3, 6]: 45.7 ng/mL | Tmax [3, 6]: 3.17 h | AUC(0-inf) [3, 6]: 289 ng·h/mL | half-life [3, 6]: 5.82 h | Cmax [3, 7]: 76 ng/mL | Tmax [3, 7]: 1.83 h | AUC(0-inf) [3, 7]: 512 ng·h/mL | half-life [3, 7]: 3.76 h | Cmax [3, 8]: 109 ng/mL | Tmax [3, 8]: 3 h | AUC(0-inf) [3, 8]: 766 ng·h/mL | half-life [3, 8]: 3.61 h | concentration at 4 h (in vivo; blood): 7 nM | concentration at 4 h (in vivo; brain): 5 nM | overt behavioral or locomotor perturbations (formalin-challenged rats; rats, at the ED50 dose and at oral doses 20-fold higher): not apparent
SMILES: O=C(OC(C(F)(F)F)C(F)(F)F)N1CCN(Cc2ccc(C(F)(F)F)cc2N2CCCC2)CC1 [Compound 1, 1,1,1,3,3,3-hexafluoropropan-2-yl 4-(2-(pyrrolidin-1-yl)-4-(trifluoromethyl)benzyl)piperazine-1-carboxylate]
elevation in brain 2-AG concentrations at the Phase 2 ED50 (2-AG [1]; rat formalin model, 0.5 mg/kg PO): approximately 3 fold | brain levels of the endocannabinoid anandamide (2-AG [1]; rat, single oral doses): not elevated | increase of 2-AG concentration in plasma (2-AG [1]; rat, single oral doses): 7 fold | ED50 (2-AG [1]; rat, single oral doses up to 30 mg/kg, 4 hours, read-out: ED50 for increase of brain 2-AG concentrations (average)): 1.3 mg/kg | increase of plasma 2-AG levels (2-AG [2]): up to 7 fold | effect of single and repeated administration on pain behaviors (formalin-challenged rats; 1 mg/kg, single vs 5 days QD, n=10, repeat dose group not statistically different from vehicle): numerically reduced pain behaviors to a similar extent | ED50 for exposure associated with efficacy (formalin-challenged rats; rat formalin nocifensive model): 0.4 µM·h | Phase 2 ED50, paw licking behavior (formalin-challenged rats; single dose PO, 4 hours pre-test, n=10): 0.5 mg/kg | effect on nociception in formalin-challenged rats (formalin-challenged rats; single dose up to 10 mg/kg PO, 4 hours pre-test, early (Phase 1) and delayed (Phase 2) phases): dose-dependent antinociceptive effects | increase of brain 2-AG concentrations (2-AG [4]): up to 30 fold

SMILES: O=C(OC(C(F)(F)F)C(F)(F)F)N1CCN(Cc2ccc(C(F)(F)F)cc2N2CCCC2)CC1 [Compound 1 HCl, 1,1,1,3,3,3-hexafluoropropan-2-yl 4-(2-(pyrrolidin-1-yl)-4-(trifluoromethyl)benzyl)piperazine-1-carboxylate]
adverse events leading to discontinuation [5, 9]: no adverse events leading to the discontinuation of any subjects | changes in vital signs, laboratory test values, or ECGs [5, 9]: no clinically significant changes | vital sign, safety laboratory, or electrocardiographic findings ([5]; healthy male subjects, fasting state, single oral doses up to 200 mg): not associated with any vital sign, safety laboratory, or electrocardiographic findings of note
